Laboratory results taken from patent US4438201A, “Amidohydrolase having ability to depantothenylate an antibiotic” (Sanraku-Ocean Co., Ltd., priority 1981, dated 1984).

Assays:
[1] = system: amidohydrolase (enzyme of this invention); assay: Experiment C: acyl transfer from acyl-CoA to 6-APA; assay type: biochemical, Streptomyces fulvoviridis A933; settings: acetyl-CoA or glutaryl-CoA; 37° C., 3 hours
Description: 0.2 M Potassium phosphate buffer, pH 7.4 (10 μl), 10 μl of 6-aminopenicillanic acid (6-APA) (500 μg/ml), 20 μl of acyl-CoA (5 μmoles/ml) and 10 μl of the enzyme preparation from Example 1 were mixed and incubated at 37° C. for 3 hours. The products were analyzed by HVPE in the same way as in Example 2, employing acetic acid buffer, pH 4.5 Acetyl-CoA and glutaryl-CoA were used as acyl-CoA.
The controls were the same reaction mixtures minus enzyme solution and acyl-CoA respectively.

[2] = system: amidohydrolase (enzyme of this invention); assay: Substrate specificity for N-acyl-amino acids (deacylation, standard assay); assay type: biochemical, Streptomyces fulvoviridis A933; settings: N-chloroacetyl-L-phenylalanine as 100
Description: The relative activity in Table 1 refers to N-chloroacetyl-L-phenylalanine as 100.
(§1) Ten microliters of 0.2 M piperazine-N,N'-bis(2-ethanesulfonic acid) [=PIPES] buffer, pH 7.3, and 10 μl of 100 mM N-chloroacetyl-L-phenylalanine (adjusted to pH 6-7 with NaOH) are dissolved in 20 μl of water. After 10 μl of an enzyme solution (30-50 μg/ml) is added, the mixture is incubated at 37° C. for 15 minutes. Then, 50 μl of 50% acetic acid is added to stop the enzymatic reaction. The amount of L-phenylalanine produced from the substrate in the reaction solution is determined by the Yemm-Cocking ninhydrin colorimetric method (E. W. Yemm & E. C. Cocking: Analyst, Vol. 80, page 209, 1955) or with an amino acid automatic analyzer (Model 835-50, Hitachi Limited).

[3] = system: amidohydrolase (enzyme of this invention); assay: Effects of metal ions, chelating agents and -SH inhibitors on enzyme activity; assay type: biochemical, Streptomyces fulvoviridis A933
Description: as §1
The relative activity in Table 2 refers to the activity of the enzyme in the absence of such chemical as 100.

[4] = system: amidohydrolase (enzyme of this invention); assay: Experiment A: action of the enzyme on PS-5 and OA-6129A, HVPE bioautography and pantothenate bioassay; assay type: biochemical, Streptomyces fulvoviridis A933
Description: A mixture (50 μl) consisting of 10 μl of 0.2 M potassium phosphate buffer, pH 7.4, 20 μl of an antibiotic PS-5 solution (500 μg/ml) or an antibiotic OA-6129A solution (500 μg/ml), 10 μl of the enzyme solution obtained in Example 1, and 10 μl of water was incubated at 37° C. for 3 hours.
As a control, the mixture minus the enzyme solution was allowed to react under the same conditions.
3 μl of each of the resulting reaction solutions was spotted on Watmann No. 1 filter paper, and subjected to electrophoresis for 50 minutes at 1500 V/30 cm with Veronal buffer, pH 8.6. After electrophoresis, the products were bioautographed with Comamonas terrigena B-996 as assay organism.

[5] = system: amidohydrolase (enzyme of this invention); assay: Experiment B: acyl exchange of OA-6129A with acyl-CoA; assay type: biochemical, Streptomyces fulvoviridis A933; settings: acetyl-, n-propionyl-, n-butyryl- or glutaryl-CoA; 37° C., 3 hours
Description: A mixture consisting of 10 μl of 0.2 M potassium phosphate buffer, pH 7.4, 10 μl of a solution of antibiotic OA-6129A (500 μg/ml), 10 μl of acyl-CoA (5 μmoles/ml), 10 μl of the enzyme preparation from Example 1 and 10 μl of water was allowed to react at 37° C. for 3 hours. The product was assayed by high voltage paper electrophoresis (HVPE) in the same way as in Experiment A.
As controls, the same mixture minus acyl-CoA and the same mixture minus the enzyme solution were incubated under the same conditions as mentioned above.
Acetyl-CoA, n-propionyl-CoA, n-butyryl-CoA and glutaryl-CoA were used as acyl-CoA.

[6] = system: cell-free homogenate of Streptomyces cattleya (acylase); assay: Example 2: action of cell-free homogenate on PS-5 and OA-6129A; assay type: biochemical, Streptomyces cattleya (NRRL 8057)
Description: Glucose (2.5 g), 1 g of corn steep liquor, 0.5 g of Pharmamedia® (a product of Traders Oil Mill Company), 0.5 g of yeast extract and 0.3 g of CaCO3 were dissolved in 100 ml of tap water, and the pH of the suspension was adjusted to 7.0. Then, 50 ml portions of the suspension were distributed in 250 ml Erlenmeyer flasks, and sterilized at 120° C. for 15 minutes. After cooling Streptomyces cattleya (NRRL 8057) was inoculated, and the flasks were cultivated at 28° C. for 90 hours with shaking.
Mycelia were collected by centrifugation and treated by the same procedure as in Example 1 to give 20 ml of a cell-free homogenate. With this fresh homogenate, the enzymological properties of Streptomyces cattleya acylase were examined.
A mixture containing 10 μl of 0.2 M potassium phosphate buffer, pH 7.4, 10 μl of an antibiotic PS-5 solution (500 μg/ml) or an antibiotic OA-6129A solution (500 μg/ml), 10 μl of acyl-CoA (5 μmoles/ml) and 20 μl of the cell-free homogenate was incubated at 37° C. for 4 hours. The product was analysed by HVPE in the same manner as in Experiment A.
The control reaction mixtures contained either no cell-free homogenate or no acyl-CoA. Acetyl-CoA and n-propionyl-CoA were used as acyl-CoA.

[7] = system: cell-free homogenate of Streptomyces cremeus subsp. auratilis; assay: Example 3: action of cell-free homogenate on PS-5 and OA-6129A; assay type: biochemical; settings: 37° C., 4 hours
Description: Soluble starch (5.2 g), 1.2 g of Essan-Miit, 0.16 g of NaCl, 0.08 g of K2 HPO4 and 0.04 g of MgSO4.7H2 O were dissolved in 80 ml of tap water and 40 ml portions of the suspension were filled in two 250 ml Erlenmeyer flasks. After autoclaving at 120° C. for 15 minutes, Streptomyces cremeus subsp. auratilis was inoculated, and cultivated at 28° C. for 68 hours. Using the same procedure as in Example 1, 20 ml of the cell-free homogenate was obtained. For confirmation of the enzyme activity, the following reactions were studied.
A mixture (50 μl) consisting of 10 μl of 0.2 M potassium phosphate buffer, pH 7.4, 10 μl of an antibiotic PS-5 solution (500 μg/ml) or an antibiotic OA-6129A solution (500 μg/ml), 20 μl of the cell-free homogenate and 10 μl of water was kept at 37° C. for 4 hours. The products were assayed by HVPE in the same way as in Experiment A.
As a control, the above reaction was carried out without the cell-free homogenate.

[8] = system: cell-free homogenate of Streptomyces argenteolus; assay: Example 4: action of cell-free homogenate on PS-5 and OA-6129A; assay type: biochemical; settings: tested as in Example 3
Description: Glycerol (4 g), 0.5 g of peptone, 0.2 g of glucose, 0.2 g of soluble starch, 0.5 g of Essan Miit®, 0.5 g of dry yeast, 0.5 g of NaCl and 0.2 g of CaCO3 were dissolved in 100 ml of tap water. Each 25 ml portion of the suspension was distributed in 250 ml Erlenmeyer flasks, and sterilized at 120° C. for 15 minutes. After cooling the culture medium, Streptomyces argenteolus was inoculated and cultivated at 28° C. for 68 hours with shaking. 20 ml of a cell extract was obtained. The same procedure of treatment as in Example 1 yielded 20 ml of a cell-free homogenate which was tested as explained in Example 3.

[9] = additive 0.1 mM, activity without additive as 100, 15 min
[10] = additive 1 mM, activity without additive as 100, 15 min

| Relative activity [2] | SMILES | Relative activity [3, 10] | also measured |
| --- | --- | --- | --- |
| – | CC1(C)S[C@@H]2[C@H](N)C(=O)N2[C@H]1C(=O)O [6-APA, 6-aminopenicillanic acid] | – | Acyl transfer from acyl-CoA to the amino group [1]: converted to the corresponding acyl-6-APA |
| 163.8 | CC(=O)N[C@@H](C)C(=O)O [N--Acetyl-L-alanine] | – | – |
| 0 | CC(=O)N[C@H](CC(C)C)C(=O)O [N--Acetyl-D-leucine] | – | – |
| 23.9 | CC(=O)NCC(=O)O [N--Acetyl-glycine] | – | – |
| 32.4 | CC(=O)N[C@H](C(=O)O)C(C)C [N--Acetyl-L-valine] | – | – |
| 2.7 | CC(=O)N[C@@H](CCC(=O)O)C(=O)O [N--Acetyl-L-glutamic acid] | – | – |
| – | [Cl][Hg][Cl] [HgCl2] | 0 | Relative activity ([3]; additive 0.01 mM, activity without additive as 100, 15 min): 84.5; Relative activity [3, 9]: 6.4 |
| 351.1 | CC(C)[C@H](NC(=O)CCl)C(=O)O [N--Chloroacetyl-L-valine] | – | – |
| – | CCC1C(=O)N2C(C(=O)O)=C(SCCNC(=O)CCNC(=O)C(O)C(C)(C)CO)CC12 (stereo not drawn) [OA-6129A] | – | Depantothenylation of the substrate by the enzyme ([4]; 37° C., 3 hours, pH 7.4): removes the pantotheinyl group; Concentration of pantothenate in the reaction solution ([4]; bioassay with Saccharomyces carlsbergensis (ATCC 9080), enzyme present): 8 µg/mL; Exchange of the pantotheinyl group with the acyl group of acyl-CoA [5]: catalyzes the exchange of the pantotheinyl group; Acyl exchange with acyl-CoA by the cell-free homogenate ([6]; acetyl-CoA present): transform to PS-5; Depantothenylation by the cell-free homogenate ([6]; without acyl-CoA, 37° C., 4 hours): catalyzes the depantothenylation; Depantothenylation by the cell-free homogenate [7]: has the ability to eliminate the pantotheinyl group; Depantothenylation by the cell-free homogenate [8]: does depantothenylate |
| 262.1 | CSCC[C@H](NC(C)=O)C(=O)O [N--Acetyl-L-methionine] | – | – |
| – | [Co+2] [Co^++] | – | Effect of the ion on the enzyme (in words) ([3]; known acylases are activated or stabilized by 0.5 to 10 mM): inhibited |
| – | [Cl][Mn][Cl] [MnCl2] | 74.3 | – |
| – | O=C(O)c1cc[c]([Hg][Cl])cc1 [p-CMB, pchloromercuribenzoic acid] | 0 | – |
| 15.3 | CC(=O)N[C@@H](Cc1ccccc1)C(=O)O [N--Acetyl-L-phenylalanine] | – | – |
| 0 | CC(=O)N[C@H](Cc1ccccc1)C(=O)O [N--Acetyl-D-phenylalanine] | – | – |
| – | [Cl][Cd][Cl] [CdCl2] | 10.2 | – |
| 92.8 | CC(=O)N[C@@H](CC(C)C)C(=O)O [N--Acetyl-L-leucine] | – | – |

| Relative activity [2] | SMILES | Relative activity [3, 10] | also measured |
| --- | --- | --- | --- |
| – | [Cl-].[Cl-].[Co+2] [CoCl2] | 82.4 | Relative activity ([3]; additive 0.2 mM, activity without additive as 100, 15 min): 92.3; Relative activity ([3]; additive 2 mM, activity without additive as 100, 15 min): 3.8; Relative activity ([3]; additive 4 mM, activity without additive as 100, 15 min): 0 |
| – | [Cl-].[Cl-].[Mg+2] [MgCl2] | 93.6 | – |
| 0 | CC(=O)N[C@H](C)C(=O)O [N--Acetyl-D-alanine] | – | – |
| 112.7 | CSCC[C@H](NC=O)C(=O)O [N--Formyl-L-methionine] | – | – |
| – | O=S(=O)([O-])[O-].[Ni+2] [NiSO4] | 79.4 | – |
| – | c1cnc2c(c1)ccc1cccnc12 [o-PT, ophenanthroline] | 56.4 | – |
| – | O=C(O)CN(CCN(CC(=O)O)CC(=O)O)CC(=O)O [EDTA, ethylenediaminetetracetic acid] | – | Relative activity ([3]; pipes buffer, pH 7.3, 15 min, 1000 µM): 95.8 |
| 16.4 | CC(C)C[C@H](NC=O)C(=O)O [N--Formyl-L-leucine] | – | – |
| 0 | CSCC[C@@H](NC(C)=O)C(=O)O [N--Acetyl-D-methionine] | – | – |
| 0 | CC(=O)N[C@@H](C(=O)O)C(C)C [N--Acetyl-D-valine] | – | – |
| – | [Cl-].[Cl-].[Zn+2] [ZnCl2] | 7.7 | – |
| – | [Cl][Cu][Cl] [CuCl2] | 0 | Relative activity [3, 9]: 87.5 |
| – | [Cl][Sn][Cl] [SnCl2] | 64.4 | – |
| – | [Cl][Pb][Cl] [PbCl2] | 58.8 | – |
| – | O=S(=O)([O-])[O-].[Fe+2] [FeSO4] | 53.2 | – |
| 39.8 | CC(=O)N[C@@H](CCCCN)C(=O)O [N--α-Acetyl-L-lysine] | – | – |
| – | CCC1C(=O)N2C(C(=O)O)=C(SCCNC(C)=O)CC12 (stereo not drawn) [PS-5] | – | Deacetylation of the substrate by the enzyme ([4]; 37° C., 3 hours, pH 7.4): did not attack antibiotic PS-5 at all; Susceptibility of the substrate to the cell-free homogenate ([6]; irrespective of the presence of acyl-CoA, 37° C., 4 hours): not susceptible; Deacetylation by the cell-free homogenate [7]: no ability to deacetylate; Deacetylation by the cell-free homogenate [8]: no ability to deacetylate |

| SMILES | Relative activity [2] | Relative activity [3, 10] | also measured |
| --- | --- | --- | --- |
| O=C(CCl)N[C@@H](Cc1ccccc1)C(=O)O [N--Chloroacetyl-L-phenylalanine] | 100 | – | – |
| CC(C)C[C@H](NC(=O)CCl)C(=O)O [N--Chloroacetyl-L-leucine] | 348.5 | – | – |
